The structures appear in SMILES notation.

Chain of human TREX1 (Q9NSU2 whole entry, the tested form may be a part): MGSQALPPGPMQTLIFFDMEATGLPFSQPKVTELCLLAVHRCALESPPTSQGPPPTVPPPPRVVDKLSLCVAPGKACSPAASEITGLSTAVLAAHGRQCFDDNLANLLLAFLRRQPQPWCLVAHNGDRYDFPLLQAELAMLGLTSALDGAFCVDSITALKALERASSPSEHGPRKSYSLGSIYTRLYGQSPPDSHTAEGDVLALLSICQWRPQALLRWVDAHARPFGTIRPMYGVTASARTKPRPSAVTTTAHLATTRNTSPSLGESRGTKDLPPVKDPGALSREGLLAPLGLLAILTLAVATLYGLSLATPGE

The target in the assay is human TREX1 (Homo sapiens (Human), UniProt Q9NSU2). The assay can be described thus: TREX1 Exonuclease Assay. The format is biochemical. The protocol:
For human TREX1, the nucleotide sequence of the gene construct was codon optimized for expression in the bacterial host. The sequence was incorporated into the pMAL-c5e vector (NEB) downstream of a solubility-promoting MBP (maltose binding protein) fusion partner. The fusion protein product was expressed in E. coli strain BL21 (DE3) (Millipore) and purified in a series of chromatographic steps. Initial steps were conducted using a dextrin sepharose affinity column followed by a Q-sepharose ion exchange column (both GE Healthcare). After the second column the MBP partner was removed by incubation with enterokinase (NEB). Further purification was carried out with the second application of a Q-sepharose column followed by a Superdex 75 (GE Healthcare) size exclusion column. Finally, a heparin sepharose column (GE Healthcare) was applied to remove contaminating nucleotides.
To evaluate the effect of compounds on TREX1 activity, test compounds were serially diluted (11-point, 3-fold) from 10 mM stock solutions and delivered to 384-well low-volume assay plates in 80 nL DMSO using an acoustic dispenser. Next, 4 μL of human TREX1 (0.5 nM), or murine TREX1 (1 nM), diluted in assay buffer (20 mM Tris pH 7.5, 5 mM MgCl2, 100 μg/mL BSA, 0.002% Triton X-100, 2 mM DTT), was added to the assay plate. After incubating for 30 minutes, 4 μL of labeled DNA oligonucleotide (500 nM) in assay buffer was added to initiate TREX1 exonuclease activity. The reaction was allowed to proceed for 45 minutes at room temperature prior to the addition of 4 μL of 150 mM EDTA to halt TREX1 activity.
On to `N[C@@H]1C[C@H]2C(=O)N([C@@H]3CCCN(S(=O)(=O)c4ccccc4)C3)CCC(CCc3ccccc3)N2C1` (stereo partly drawn) [Example 84], for which the IC50 (usually the concentration that inhibits the measured activity by half) fell in the range of 10000 to 100000 nM.
`N[C@@H]1C[C@H]2C(=O)N([C@@H]3CCCN(C(=O)c4ccc(Cl)c(Cl)c4)C3)CCC(CCc3ccccc3)N2C1` (stereo partly drawn) [Example 85]: the IC50 fell in the range of 10000 to 100000 nM.
For `N[C@@H]1C[C@H]2C(=O)N([C@H]3CCCN(S(=O)(=O)c4ccc(Cl)c(Cl)c4)C3)CCC(CCc3ccccc3)N2C1` (stereo partly drawn) [Example 86] the value was 1000 to 9990 nM; for `N[C@@H]1C[C@H]2C(=O)N([C@H]3CCCN(C(=O)c4ccc(Cl)c(Cl)c4)C3)CCC(CCc3ccccc3)N2C1` (stereo partly drawn) [Example 87], 10000 to 100000 nM; for `CCN(CC)C(=O)COC(=O)CC[C@H](C(=O)NCc1ccc(Cl)c(Cl)c1)N1CCC(CCc2ccccc2)N2C[C@H](N)C[C@H]2C1=O` (stereo partly drawn) [Example 88, (4R)-2-(diethylamino)-2-oxoethyl 4-((8R,9aS)-8-amino-1-oxo-5-phenethylhexahydro-1H-pyrrolo[1,2-a][1,4]diazepin-2(3H)-yl)-5-((3,4-dichlorobenzyl)amino)-5-oxopentanoate], < 1000 nM.
`CCOC(=O)CC[C@H](C(=O)NCc1ccc(Cl)c(Cl)c1)N1CCC(CCc2ccccc2)N2C[C@H](N)C[C@H]2C1=O` (stereo partly drawn) [Example 89, (4R)-ethyl 4-((8R,9aS)-8-amino-1-oxo-5-phenethylhexahydro-1H-pyrrolo[1,2-a][1,4]diazepin-2(3H)-yl)-5-((3,4-dichlorobenzyl)amino)-5-oxopentanoate]: the IC50 was < 1000 nM.
The result for `CC(C)OC(=O)CC[C@H](C(=O)NCc1ccc(Cl)c(Cl)c1)N1CCC(CCc2ccccc2)N2C[C@H](N)C[C@H]2C1=O` (stereo partly drawn) [Example 92] reads < 1000 nM; that for `CCOC(=O)CC[C@H](C(=O)NCc1cc(Cl)c(Cl)cc1F)N1CCC(CCc2ccccc2)N2C[C@H](N)C[C@H]2C1=O` (stereo partly drawn) [Example 94], < 1000 nM.
Consider `CCOC(=O)CC[C@H](C(=O)N1CCOC[C@H]1c1ccc(Cl)c(Cl)c1)N1CCC(CCc2ccccc2)N2C[C@H](N)C[C@H]2C1=O` (stereo partly drawn) [Example 96], for which the half-maximal inhibitory concentration (IC50) was < 1000 nM.
Take `CCOC(=O)CC[C@H](C(=O)N1CCCC[C@H]1c1ccc(Cl)c(Cl)c1)N1CCC(CCc2ccccc2)N2C[C@H](N)C[C@H]2C1=O` (stereo partly drawn) [Example 97]: the concentration for half-maximal inhibition (IC50) is < 1000 nM.
As for `CCOC(=O)CC[C@H](C(=O)N1CCC[C@H]1c1ccc(Cl)c(Cl)c1)N1CCC(CCc2ccccc2)N2C[C@H](N)C[C@H]2C1=O` (stereo partly drawn) [Example 98], the IC50 was < 1000 nM.
For `CCOC(=O)CC[C@H](C(=O)NCc1cc(Cl)c(Cl)cn1)N1CCC(CCc2ccccc2)N2C[C@H](N)C[C@H]2C1=O` (stereo partly drawn) [Example 99], the IC50 was < 1000 nM.
For `COC(=O)CC[C@H](C(=O)NCc1ccc(Cl)cn1)N1CCC(CCc2ccccc2)N2C[C@H](N)C[C@H]2C1=O` (stereo partly drawn) [Example 100] the value was < 1000 nM.
The result for `COC(=O)CC[C@H](C(=O)NS(=O)(=O)c1ccc(Cl)c(Cl)c1)N1CCC(CCc2ccccc2)N2C[C@H](N)C[C@H]2C1=O` (stereo partly drawn) [Example 101] reads < 1000 nM; that for `CCOC(=O)CC[C@H](C(=O)NCc1ccc(Cl)c(Cl)c1OC)N1CCC(CCc2ccccc2)N2C[C@H](N)C[C@H]2C1=O` (stereo partly drawn) [Example 102], < 1000 nM.
Turning to `CCOC(=O)CC[C@H](C(=O)NCc1cc(Cl)c(Cl)cc1OC)N1CCC(CCc2ccccc2)N2C[C@H](N)C[C@H]2C1=O` (stereo partly drawn) [Example 103], the IC50 was < 1000 nM.
`COC(=O)CC[C@H](C(=O)NCc1ccc(Cl)c(Cl)c1)N1CCC(CCc2ccccc2)N2C[C@H](N)C[C@H]2C1=O` (stereo partly drawn) [Example 104, (4R)-methyl 4-((8R,9aS)-8-amino-1-oxo-5-phenethylhexahydro-1H-pyrrolo[1,2-a][1,4]diazepin-2(3H)-yl)-5-((3,4-dichlorobenzyl)amino)-5-oxopentanoate]: the half-inhibitory concentration (IC50) is < 1000 nM.
Consider `COc1c(CNC(=O)[C@@H](CCC(N)=O)N2CCC(CCc3ccccc3)N3C[C@H](N)C[C@H]3C2=O)ccc(Cl)c1Cl` (stereo partly drawn) [Example 106], for which the IC50 is < 1000 nM.
On to `NC(=O)CC[C@H](C(=O)NCc1ccc(Cl)c(Cl)c1F)N1CCC(CCc2ccccc2)N2C[C@H](N)C[C@H]2C1=O` (stereo partly drawn) [Example 107], for which the concentration for half-maximal inhibition (IC50) is < 1000 nM.
Take `COc1c(CNC(=O)[C@@H](CCC#N)N2CCC(CCc3ccccc3)N3C[C@H](N)C[C@H]3C2=O)ccc(Cl)c1Cl` (stereo partly drawn) [Example 108]: the half-inhibitory concentration (IC50) is < 1000 nM.
For the molecule `N#CCC[C@H](C(=O)NCc1ccc(Cl)c(Cl)c1F)N1CCC(CCc2ccccc2)N2C[C@H](N)C[C@H]2C1=O` (stereo partly drawn) [Example 109], the IC50 is < 1000 nM.
With `N#CCC[C@H](C(=O)NCc1ccc(Cl)c(Cl)c1)N1CCC(COc2ccc(F)cc2)N2C[C@H](N)C[C@H]2C1=O` (stereo partly drawn) [Example 110], the half-inhibitory concentration (IC50) was < 1000 nM.
In the case of `N#CCC[C@H](C(=O)NCc1ccc(Cl)c(Cl)c1)N1CCC(COc2cccc(F)c2)N2C[C@H](N)C[C@H]2C1=O` (stereo partly drawn) [Example 111], the half-maximal inhibitory concentration (IC50) is < 1000 nM.
With `N#CC[C@H](C(=O)NCc1ccc(Cl)c(Cl)c1)N1CCC(CCc2ccccc2)N2C[C@H](N)C[C@H]2C1=O` (stereo partly drawn) [Example 112], the IC50 was < 1000 nM.
Take `N#CC[C@H](C(=O)NCc1ccc(Cl)c(Cl)n1)N1CCC(CCc2ccccc2)N2C[C@H](N)C[C@H]2C1=O` (stereo partly drawn) [Example 113]: the IC50 is < 1000 nM.
Consider `N[C@@H]1C[C@H]2C(=O)N([C@H](CCC(=O)NO)C(=O)NCc3ccc(Cl)c(Cl)c3)CCC(COc3ccc(F)cc3)N2C1` (stereo partly drawn) [Example 115], for which the IC50 is < 1000 nM.
For `N[C@@H]1C[C@H]2C(=O)N([C@H](CCC(=O)NO)C(=O)NCc3ccc(Cl)c(Cl)c3)CCC(CCc3ccccc3)N2C1` (stereo partly drawn) [Example 116] the value was < 1000 nM.
Consider `CONC(=O)CC[C@H](C(=O)NCc1ccc(Cl)c(Cl)c1)N1CCC(CCc2ccccc2)N2C[C@H](N)C[C@H]2C1=O` (stereo partly drawn) [Example 117], for which the IC50 was < 1000 nM.
For `CC(=O)NCC[C@H](C(=O)NCc1ccc(Cl)c(Cl)c1)N1CCC(CCc2ccccc2)N2C[C@H](N)C[C@H]2C1=O` (stereo partly drawn) [Example 131] the value was < 1000 nM; for `CS(=O)(=O)NCC[C@H](C(=O)NCc1ccc(Cl)c(Cl)c1)N1CCC(CCc2ccccc2)N2C[C@H](N)C[C@H]2C1=O` (stereo partly drawn) [Example 132], < 1000 nM.
Regarding `N[C@@H]1C[C@H]2C(=O)N([C@H](CCNS(=O)(=O)C3CC3)C(=O)NCc3ccc(Cl)c(Cl)c3)CCC(CCc3ccccc3)N2C1` (stereo partly drawn) [Example 133], the IC50 was < 1000 nM.
For the molecule `CNC(=O)CC[C@H](C(=O)NCc1ccc(Cl)c(Cl)c1)N1CCC(CCc2ccccc2)N2C[C@H](N)C[C@H]2C1=O` (stereo partly drawn) [Example 136], the half-maximal inhibitory concentration (IC50) was < 1000 nM.
`Cc1nnc(CC[C@H](C(=O)NCc2ccc(Cl)c(Cl)c2F)N2CCC(CCc3ccccc3)N3C[C@H](N)C[C@H]3C2=O)[nH]1` (stereo partly drawn) [Example 140]: the 50% inhibitory concentration (IC50) is < 1000 nM.
For `CC(C)Oc1c(CNC(=O)[C@@H](CCC#N)N2CCC(CCc3ccccc3)N3C[C@H](N)C[C@H]3C2=O)ccc(Cl)c1Cl` (stereo partly drawn) [Example 141] the value was < 1000 nM; for `N[C@@H]1C[C@H]2C(=O)N([C@H](CCNS(=O)(=O)C(F)(F)F)C(=O)NCc3ccc(Cl)c(Cl)c3)CCC(CCc3ccccc3)N2C1` (stereo partly drawn) [Example 142], < 1000 nM; for `CCOC(=O)N[C@@H]1C[C@H]2C(=O)N([C@H](CCC(=O)O)C(=O)NCc3ccc(Cl)c(Cl)c3)CCC(CCc3ccccc3)N2C1` (stereo partly drawn) [Example 143], 10000 to 100000 nM.
Turning to `CC(C)Oc1c(CNC(=O)[C@@H](CCc2nnn[nH]2)N2CCC(CCc3ccccc3)N3C[C@H](N)C[C@H]3C2=O)ccc(Cl)c1Cl` (stereo partly drawn) [Example 144], the IC50 was < 1000 nM.
In turn, `CCOC(=O)CC[C@H](C(=O)NCc1ccc(Cl)c(Cl)c1)N1CCC(CCc2ccccc2)N2C[C@H](NC(=O)OCC)C[C@H]2C1=O` (stereo partly drawn) [Example 145] came in with a concentration for half-maximal inhibition (IC50) of 10000 to 100000 nM.
For `N[C@@H]1C[C@H]2C(=O)N([C@H](CCC(=O)O)C(=O)NCc3ccc(Cl)c(C(F)(F)F)c3)CCC(CCc3ccccc3)N2C1` (stereo partly drawn) [Example 146], the half-maximal inhibitory concentration (IC50) was < 1000 nM.

For the origin of these results see patent publication US11583538B2, “Substituted pyrrolo[1,2-a]pyrazines and pyrrolo[1,2-a][1,4]diazepines as TREX1 inhibitors” (Venenum Biodesign, LLC, priority 2019, dated 2023).
